# How the values were obtained:
# [1] = tested on: nematode egg and larval stages in dung; experiment: Mini dung egg hatch-survival assay; conditions: treatments applied to fresh dung on days 0 through 7, harvested days 12-16
# Protocol: All the dung samples were then left until day 12 when the first replicates were harvested. The last replicate was sampled on day 16. Hatched larvae were separated from the dung and numerated via microscopic examination. Town supply tap water was used for solution preparation and used as the reference control treatment. Sodium hypochlorite was added to tap-water to form a bleach solution containing 5% w/v NaOCl.
# [2] = tested on: eggs of free-living parasitic nematodes; experiment: Egg hatch assay
# Protocol: Approximately 125 eggs were place in 24 well plate wells and treatments applied. After 24 hours, unhatched eggs and larvae were numerated by microscopic examination. Town supply tap water was used for solution preparation and used as the reference control treatment Sodium hypochlorite was added to tap-water to form a bleach solution containing 5% w/v NaOCl […]
# Haemonchus contortus L3 = conditions: in vivo
# [3] = format: physicochemical
# Haemonchus controtus L3 = experiment: Petri-dish laboratory study of efficacy against L3; conditions: for Measured efficacy: 24 ml solution, live L3 recovered by Baermann funnel, 10 replicates; for effectiveness in killing L3: result in words
molecule,measurement,setting,value
"OCl [Bleach, Sodium hypochlorite]",impact on nematode development in dung,[1],"small impact on all stage of the nematode development from the egg through to the L1, 2 and 3 stages"
same,effect on eggs and egg hatching,"[2]; after 24 hours, result in words",destroyed all the eggs
same,Average of % hatch,"[2]; approximately 125 eggs per well, after 24 hours",0.0%
same,Average of larvae,"[2]; approximately 125 eggs per well, larvae counted after 24 hours",0.0
same,Average of eggs,"[2]; approximately 125 eggs per well, unhatched eggs counted after 24 hours",0.3
"[Ca+2].[OH-].[OH-] [Ca(OH)2 0.1%, calcium hydroxide]",impact on L3 numbers in faeces,Haemonchus contortus L3,Neither ammonium nitrate nor calcium hydroxide applied alone or in combination had any impact on L3 numbers in faeces
same,impact on L3 numbers on pasture,Haemonchus contortus L3,neither ammonium nitrate nor calcium hydroxide applied alone had any impact on L3 numbers on pasture
same,pH 0,[3],12.0
same,Measured efficacy,Haemonchus controtus L3; listed as Ca(OH)2 0.100%,93%
same,effectiveness in killing L3,Haemonchus controtus L3,effective in killing L3
"[Ca+2].[OH-].[OH-] [Ca(OH)2 0.05%, calcium hydroxide]",pH 0,[3],11.6
same,Measured efficacy,Haemonchus controtus L3; listed as Ca(OH)2 0.050%,69%
"[Ca+2].[OH-].[OH-] [Ca(OH)2 0.013%, calcium hydroxide]",pH 0,[3],11.0
same,Measured efficacy,Haemonchus controtus L3,28%
"[Ca+2].[OH-].[OH-] [Ca(OH)2 0.025%, calcium hydroxide]",pH 0,[3],11.3
same,Measured efficacy,Haemonchus controtus L3,43%
ammonium nitrate [NH4NO3 1.75%],Measured efficacy,Haemonchus controtus L3,−39%
ammonium nitrate [NH4NO3 3.5%],Measured efficacy,Haemonchus controtus L3,12%
ammonium nitrate [NH4NO3 7%],Measured efficacy,Haemonchus controtus L3,72%
ammonium nitrate [NH4NO3 13.5%],Measured efficacy,Haemonchus controtus L3,97%
same,effectiveness in killing L3,Haemonchus controtus L3,effective in killing L3

# Source: patent US10681911B2, “Anthelminthic composition” (AgResearch Limited, priority 2016, dated 2020)
